From patent US5627173A, “Phosphonoacetic acid derivatives and their use for treating degenerative joint disorders” (Hoechst Aktiengesellschaft, priority 1995, dated 1997)
Converted amounts (≈) assume the structure as drawn.

How the values were obtained:
matrix metalloproteases = assay: Inhibition of matrix metalloproteases (MMP from rabbit synoviocytes HIG-82, fluorescent substrate); format: biochemical
Description: After confluent cell growth, the MMP expression was induced in the serum-free 3F12 HAM medium by adding 0.3 μmol/l phorbol 12-myristate 13-acetate. The supernatant was removed after incubating at 37° C. for 20 hours.
Activation of the MMP: The supernatant was activated with trypsin (5 μg/ml). After 15 minutes at 37° C., the activation was stopped by adding 1 mmol/l phenylmethylsulfonyl fluoride (PMSF) and incubating for a further 10 minutes. The total volume of the mixture was 210 μl.
The test substance was added in the stated concentration (see table). […] The reaction was stopped after 30 minutes by adding 10 mmol/l EDTA. The total-volume of the mixture was 320 μl . The parameters measured were the fluorescence intensities at […]. In order to take account of the possible intrinsic fluorescence of the test substances, the fluorescence intensities from parallel measurements without substrate were subtracted from the measurements with substrate. All the steps took place at 20° C.

[1] = system: isolated guinea pig trachea; assay: Antagonism of PGF2α-induced contraction of the isolated guinea pig trachea; conditions: Cavia porcellus; agonist PGF2α; read-out: Anticontractile effect (trachea), concentration range needed to bring about a dilatation corresponding to the ED50 range
Text: (§1) The compounds according to the invention are used as antagonists of the contraction of various parts of organs, in this case the isolated guinea pig trachea. The agonists used were KCl, PGF2a, calcium ionophore A23187 and substance P:
Inhibition of contractions induced by this cyclooxygenase product is possible only by competitive antagonism at the receptor or of the downstream signal pathway.
(§2) The guinea pigs were sacrificed by lethal anesthesia with laughing gas. The trachea was dissected out over its entire length and cut into 15 individual cartilage rings. In each case five rings were connected together to form a chain and fixed in an organ bath under a preload of 3 g. After an equilibration period of 45 minutes, a contraction was induced with the agonist. Cumulative addition of the antagonist (test product) took place at the plateau 5 of the maximum. Evaluation took place as % change in strength based on the maximum contraction. The test was carried out at 37° C., and the physiological nutrient solution used was a modified Krebs-Henseleit solution through which 95% by volume 02 and 5% by volume CO2 was bubbled.
(§3) Test animals: Albino guinea pigs (102), weight: 200 to 300 g, male or female
(§4) Composition of the organ bath (nutrient solution):
(§5) Vehicle: Double-distilled water, ethanol or isopropanol; Administration: into the organ bath Number of administrations: cumulative, single doses for SP

[2] = system: isolated guinea pig trachea; assay: Antagonism of KCl-induced contraction of the isolated guinea pig trachea; conditions: Cavia porcellus; agonist KCl; read-out: Anticontractile effect (trachea), concentration range needed to bring about a dilatation corresponding to the ED50 range
Text: as §1
Products with a non-specific effect generally show a spasmolytic effect with respect to all agonists. KCI is representative here of non-specific, receptor-independent contraction because KCl-induced contractions are produced predominantly physically, that is to say by increasing the K+ concentration in the outside medium, and change the resting potential of the cell.
as §2, §3, §4, §5

[3] = system: isolated guinea pig trachea; assay: Antagonism of substance P-induced contraction of the isolated guinea pig trachea; conditions: Cavia porcellus; agonist substance P; read-out: Anticontractile effect (trachea), concentration range needed to bring about a dilatation corresponding to the ED50 range
Text: as §1
Antagonism is possible on the one hand by specific receptor antagonists, and on the other hand by inhibition of the downstream signal pathway.
as §2, §3, §4, §5

[4] = system: isolated strips of guinea pig lung; assay: Antagonism of LTD4-induced contraction of isolated strips of guinea pig lung; conditions: Cavia porcellus; agonist LTD4; read-out: Anticontractile effect (lung), concentration range corresponding to the IC50 value
Text: (§6) The test was based on the same principle as the test indicated in Pharmacological Test 5; however, strips of lung were used in this case.
(§7) The guinea pig was sacrificed under anesthesia with laughing gas. The entire lung tract was cut out starting from the trachea. The lobes of the lungs were cut in circular fashion to produce strips about 3 mm wide. The strips of the upper lobes were divided up in order to obtain a total of six strips of approximately equal size. The strips were suspended in the organ baths under a preload of 4 g. Modified Krebs-Henseleit solutions were used as nutrient solution. When platelet activating factor (PAF) was used as agonist, the composition of this solution corresponded to that for the agonist SP in Pharmacological Test 5; a Krebs-Henseleit solution as in the case of the agonist KCI (Pharm. Test 5) was used for the agonist LTD4. 95% by volume 02, 5% by volume CO2 was bubbled through the bath, and the bath temperature was 37° C. The test is carried out by a therapeutic/cumulative method with dose levels of 1, 3, 6 and 10 μg/ml.
(§8) The test animals, organ bath, vehicle, mode of administration corresponded to that stated for Pharmacological Test 5.

[5] = system: isolated strips of guinea pig lung; assay: Antagonism of PAF-induced contraction of isolated strips of guinea pig lung; conditions: Cavia porcellus; agonist PAF; read-out: Anticontractile effect (lung), concentration range corresponding to the IC50 value
Text: as §6, §7, §8

interleukin-1β = assay: Inhibition of release of interleukin-1β from human mononuclear cells; format: cell-based; conditions: 10 .parallel.mol/l (so in the source), IL-1β, LPS-stimulated, 20 to 22 hours
Description: Obtaining mononuclear cells from human blood: 10 ml of human blood stabilized with 1 ml of 3.8 percent sodium citrate solution were diluted with 10 ml of PM16 (Serra, Heidelberg), and an underlayer of 15 ml of Lymphoprep (Dr. Molter GmbH, Heidelberg) was introduced. The samples were centrifuged at 400 x g (Minifuge 2 Heraeus, Osterode) at room temperature for 40 minutes. The mononuclear cells were visible as a white ring at the Lymphoprep/plasma boundary. This ring was cautiously removed with a syringe, diluted with the same volume of PM16 and centrifuged at 400 x g for 10 minutes. The precipitate was washed with ^~ 10 ml of RPMI1640 (+300 mg/I L-glutamine, Gibco, Eggenstein). After the cells had been suspended in ^~ 1 ml of RPMI1640 (+300 mg/I L-glutamine, +25 mM HEPES, +100 μg/ml streptomycin, +100 μg/ml penicillin), the cell density was determined with a JT Coulter Counter (Coulter Diagnostics) and adjusted to 5.10^6 /ml. 90% of the resulting cells were lymphocytes and 10% were monocytes.
Inhibition of release of interleukin-1β: 230 μl of mononuclear cells were incubated with 10 μl of test substance (10 μM in dimethyl sulfoxide (DMSO)/water=1/10) and 10 μl of a lipopolysaccharide solution (500 μg dissolved in 1 ml of DMSO and diluted 1/10 with water before starting the test, from Salmonella abortus equi, (Sigma, Deisenhofen) at 37° C., 5% CO2 for 20 to 22 hours. The samples were cooled to 0° C. in an ice bath and centrifuged in a Sigma centrifuge (2 minutes; 2000 revolutions per minute (rpm)). Aliquots of the supernatant were determined using a commercially available ELISA 5(Biermann, Bad Nauheim).
All active substances were tested at a concentration of 10 .parallel.mol/l. IL-1β release was tested in each case.

| SMILES | Inhibition of MMP, Inhibition (%) (matrix metalloproteases; 30 μM) | Inhibition of MMP, Inhibition (%) (matrix metalloproteases; 100 μM) | IC50 [4] [µg/mL] | inhibition at 10 µM (interleukin-1β) [%] | other results |
| --- | --- | --- | --- | --- | --- |
| COc1ccc(C=C(C(=O)OC(C)C)P(=O)(OC)OC)cc1OCc1ccccc1 [Compound 14] | 19 | 50 |  |  |  |
| CCOP(=O)(OCC)C(C#N)Cc1ccc(OC)c(OC)c1 (stereo not drawn) [Compound 34, 2-(diethoxyphosphinyl)-3-(3,4-dimethoxy-phenyl)propiononitrile] |  |  |  |  | EC50 [1]: > 10 µg/mL; EC50 [2]: > 10 µg/mL; EC50 [3]: 1 to 10 µg/mL (≈ 3.06 to 30.6 µM) |
| COc1cc(C=C(C(=O)OC(C)C)P(=O)(OC)OC)cc(OC)c1 [Compound 28] |  | 9 |  |  |  |
| CCOP(=O)(OCC)C(Cc1ccc(OS(C)(=O)=O)c(OS(C)(=O)=O)c1)C(=O)OC(C)C (stereo not drawn) [Compound 46] |  |  | ~10 (≈ 19.4 µM) |  | IC50 [5]: 1 to 3 µg/mL (≈ 1.94 to 5.81 µM) |
| CCOP(=O)(OCC)C(C#N)=Cc1ccc(OC)c(OCc2ccc(CBr)cc2)c1 [Compound 4] |  |  | 3 to 6 (≈ 6.07 to 12.1 µM) |  | IC50 [5]: 1 to 3 µg/mL (≈ 2.02 to 6.07 µM) |
| COc1ccc(C=C(C(=O)OC(C)C)P(=O)(OC)OC)c(OC)c1 [Compound 32] | 22 | 52 |  | 80 | Inhibition of MMP, Inhibition (%) (matrix metalloproteases; 10 μM): 12% |
| CCOP(=O)(OCC)C(C#N)=Cc1ccc(OC(C)=O)c(OC(C)=O)c1 [Compound 56, 3-(3,4-Diacetoxyphenyl)-2-(diethoxyphosphinyl) acrylonitrile] |  |  | 3 to 6 (≈ 7.87 to 15.7 µM) |  | IC50 [5]: 1 to 3 µg/mL (≈ 2.62 to 7.87 µM) |
| CCOP(=O)(OCC)C(C#N)=Cc1ccc2c(c1)OCCO2 [Compound 70] |  |  | ~6 (≈ 18.6 µM) |  |  |
| CCOC(=O)C(Cc1ccc(OC(C)=O)c(OC(C)=O)c1)P(=O)(OCC)OCC (racemic) [Compound 61, Ethyl 3-(3,4-diacetoxyphenyl)-2-(diethoxyphosphinyl) propionate (rac.)] |  |  | > 10 |  | IC50 [5]: ~3 µg/mL (≈ 6.97 µM) |
| COc1cc(OC)c(OC)cc1C=C(C(=O)OC(C)C)P(=O)(OC)OC [Compound 35] | 21 | 52 |  | 83 |  |
| COc1cc(C=C(C(=O)OC(C)C)P(=O)(OC)OC)cc(OC)c1OC [Compound 31] | 12 | 35 |  | 97 | Inhibition of MMP, Inhibition (%) (matrix metalloproteases; 10 μM): 8% |
| CC(C)OC(=O)C(=Cc1ccc(OCc2ccccc2)c(OCc2ccccc2)c1)P(=O)(O)O [Compound 51, Ammonium hydrogen 2-(3,4-dibenzyloxybenzylidene)-isopropoxycarbonylmethanephosphonate] |  | 14 |  |  |  |
| COP(=O)(OC)C(=Cc1ccc2c(c1)OCO2)C(=O)OC(C)C [Compound 42] |  |  | > 10 | 77 | IC50 [5]: 3 to 6 µg/mL (≈ 8.76 to 17.5 µM) |
| COc1ccc(C=C(C(=O)OC(C)C)P(=O)(OC)OC)cc1OC [Compound 39] | 19 | 47 | ~10 (≈ 27.9 µM) | 63 | Inhibition of MMP, Inhibition (%) (matrix metalloproteases; 10 μM): 16% |
| COc1ccc(C=C(C(=O)OC(C)C)P(=O)(O)O)cc1OC [Compound 50] |  | 14 |  |  |  |
| COP(=O)(OC)C(=Cc1ccc(OCc2ccccc2)c(OCc2ccccc2)c1)C(=O)OC(C)C [Compound 27] | 24 | 48 |  | 99 |  |
| CCOP(=O)(OCC)C(C#N)=Cc1ccc(OC)cc1OC [Compound 44] |  |  |  |  | EC50 [1]: ~6 µg/mL (≈ 18.4 µM); EC50 [2]: > 10 µg/mL; EC50 [3]: 10 to 30 µg/mL (≈ 30.7 to 92.2 µM) |
| COc1ccc(C=C(C(=O)OC(C)C)P(=O)(OC)OC)cc1OC1CCCC1 [Compound 21] | 19 | 51 |  |  |  |
| COc1ccc(CC(C(=O)OC(C)C)P(=O)(OC)OC)cc1OC (stereo not drawn) [Compound 41] |  |  | > 10 | 11 | IC50 [5]: 1 to 3 µg/mL (≈ 2.78 to 8.33 µM) |
| COP(=O)(OC)C(Cc1ccc(OCc2ccccc2)c(OCc2ccccc2)c1)C(=O)OC(C)C (stereo not drawn) [Compound 25] | 24 |  |  |  |  |
| CCCCCCCCCCCCOc1cc(C=C(C#N)P(=O)(OCC)OCC)ccc1OC [Compound 1] |  |  | > 10 |  | IC50 [5]: 1 to 3 µg/mL (≈ 2.09 to 6.26 µM) |
| CCOP(=O)(OCC)C(=Cc1ccc(OC(C)=O)c(OC(C)=O)c1)C(=O)OC [Compound 49] | 8 | 28 |  |  |  |
| CCOP(=O)(OCC)C(=Cc1ccc(OS(C)(=O)=O)c(OS(C)(=O)=O)c1)C(=O)OC(C)C [Compound 63] |  |  |  | 92 |  |
| COc1cc(CC(C(=O)OC(C)C)P(=O)(OC)OC)cc(OC)c1OC (stereo not drawn) [Compound 36] |  |  |  | 15 |  |
| COc1ccc(C=C(C(=O)OC(C)C)P(=O)(OC)OC)cc1O [Compound 26, Isopropyl 2-(dimethoxyphosphinyl)-3-(3-hydroxy-4-methoxy-phenyl)propenoate] |  | 51 |  | 59 | Inhibition of MMP, Inhibition (%) (matrix metalloproteases; 10 μM): 15% |
| CCOP(=O)(OCC)C(=Cc1c(OC)cccc1OC)C(=O)OC(C)C [Compound 48] | 9 | 26 |  |  | Inhibition of MMP, Inhibition (%) (matrix metalloproteases; 10 μM): 7% |
